These results are taken from patent publication US4356119A, “Therapeutically active polypeptides or acid addition salts and a process for producing such compounds” (Nordisk Insulinlaboratorium, priority 1978, dated 1982).

Where a SMILES comes first, the peptide text is derived from it.

One experiment has as its system fat cells. The experiment can be described thus: insulin potentiating effect on glucose metabolism in isolated fat cells. The experiment is classed as cell-based. As to conditions: 50 ng/ml insulin + 0 μg/ml peptide = 100%. An excerpt:
In vitro determination of the insulin potentiating effect of the peptides on the metabolism of glucose has given the following results, the general methods being described elsewhere (3).
All other values are based on this.

The subject of another experiment is Langerhan's islets. The experiment can be described thus: glucose stimulated insulin secretion from isolated Langerhan's islets. The experiment is classed as cell-based. To be noted: 10 mM glucose, hydrochlorides. On the procedure: In vitro determination of the effect of the peptides on the glucose stimulated insulin secretion was carried out on Langerhan's islets isolated by collagenase technique and preincubated 24 hours at 37° C. Secretion tests were conducted with 10 mM of glucose and three peptide concentrations.
All peptides have been tested in the form of their hydrochlorides together with 10 mM of glucose, and the values are calculated as a percentage of the effect of 10 mM of glucose alone.

The conditions of experiment [1]: pharmacological dosages; Enk et al. (6); cited from earlier work.
The mark [2] stands for this setting: insulin 0 ng/ml, peptide 0.01 μg/ml.
Setting [3] is: insulin 0 ng/ml, peptide 0.1 μg/ml.
Where [4] appears, read: insulin 0 ng/ml, peptide 1 μg/ml.
Setting [5] is: insulin 0 ng/ml, peptide 10 μg/ml.
Setting [6] is: insulin 0 ng/ml, peptide 100 μg/ml.
The mark [7] stands for this setting: insulin 0.6 ng/ml, peptide 0.01 μg/ml.
Where [8] appears, read: insulin 0.6 ng/ml, peptide 0.1 μg/ml.
[9] abbreviates: insulin 0.6 ng/ml, peptide 1 μg/ml.
Where [10] appears, read: insulin 0.6 ng/ml, peptide 10 μg/ml.
The mark [11] stands for this setting: insulin 0.6 ng/ml, peptide 100 μg/ml.
[12] abbreviates: insulin 50 ng/ml, peptide 0.01 μg/ml.
Where [13] appears, read: insulin 50 ng/ml, peptide 0.1 μg/ml.
Where [14] appears, read: insulin 50 ng/ml, peptide 1 μg/ml.
Setting [15] is: insulin 50 ng/ml, peptide 10 μg/ml.
Where [16] appears, read: insulin 50 ng/ml, peptide 100 μg/ml.

For the compound `COC(=O)[C@H](CCCNC(=N)N)NC(=O)[C@H](C)NC(=O)[C@H](CO)NC(=O)[C@@H](N)CC(=O)O` [compound 3, asp-ser-ala-arg-OMe, 2HCl] (H-DSAR-OMe), the “glucose metabolism in fat cells” value in the experiment on fat cells (setting [2]) is on record as 8%; with fat cells (setting [3]) it was 8%; in the experiment on fat cells (setting [4]), 8%; in the experiment on fat cells (setting [5]), 8%; in the experiment on fat cells (setting [6]), 16%; with fat cells (setting [7]) it was 90%. The “glucose metabolism in fat cells” value is 85% with fat cells (setting [8]); 80% with fat cells (setting [9]); 80% in the experiment with fat cells (setting [10]); 100% with fat cells (setting [11]); 114% in the experiment on fat cells (setting [12]); 112% in the experiment on fat cells (setting [13]). The “glucose metabolism in fat cells” value with fat cells (setting [14]) worked out at 108%; in the experiment with fat cells (setting [15]) it was 108%; with fat cells (setting [16]) it was 124%.

For the compound glu-leu-ser-arg-OMe, 2HCl [compound 1], the “glucose stimulated insulin secretion, percentage of the effect of 10 mM of glucose alone” value is given as 59% in the experiment on Langerhan's islets, 51% in the experiment on Langerhan's islets (peptide 5 mmolar) and 76% in the experiment with Langerhan's islets (peptide 5 × 10^-2 mmolar). In addition, the “glucose metabolism in fat cells” value is 22% in the experiment on fat cells (setting [2]); 22% in the experiment on fat cells (setting [3]); 22% with fat cells (setting [4]); 22% with fat cells (setting [5]); 22% with fat cells (setting [6]); 94% with fat cells (setting [7]). Moreover, the “glucose metabolism in fat cells” value in the experiment on fat cells (setting [8]) is reported as 90%; in the experiment with fat cells (setting [9]), 88%; in the experiment on fat cells (setting [10]), 91%; in the experiment on fat cells (setting [11]) it was 108%; with fat cells (setting [12]), 118%; in the experiment with fat cells (setting [13]) it was 113%. Moreover, the “glucose metabolism in fat cells” value came out at 112% with fat cells (setting [14]), 113% with fat cells (setting [15]) and 126% in the experiment with fat cells (setting [16]).

Turning to `COC(=O)[C@H](CCCNC(=N)N)NC(=O)CNC(=O)CNC(=O)CNC(=O)[C@@H](N)CCC(=O)O` [compound 6, glugly-gly-gly-arg-OMe, 2HCl] (H-EGGGR-OMe), the “glucose metabolism in fat cells” value in the experiment on fat cells (setting [6]) came to 10%; with fat cells (setting [11]) it was 89%; in the experiment on fat cells (setting [16]) it was 121%.

For secretin, in experiment [1], the blood sugar level entry is “without affecting the blood sugar level” and the secretion of insulin entry is recorded as “potentiate secretion of insulin”.

Take “glu-leu-ser-arg-leu-arg-asp-ser-ala-arg-OMe, 4HCl [compound 4]”: the “glucose stimulated insulin secretion, percentage of the effect of 10 mM of glucose alone” value with Langerhan's islets was 41%; in the experiment on Langerhan's islets (peptide 5 mmolar), 9%; in the experiment on Langerhan's islets (peptide 5 × 10^-2 mmolar), 96%.

Take “glu-leu-ser-arg-leu-arg-OMe, 3HCl [compound 2]”: the “glucose stimulated insulin secretion, percentage of the effect of 10 mM of glucose alone” value is reported as 73% in the experiment on Langerhan's islets, 113% in the experiment on Langerhan's islets (peptide 5 mmolar) and 66% in the experiment on Langerhan's islets (peptide 5 × 10^-2 mmolar). Besides, the “glucose metabolism in fat cells” value in the experiment with fat cells (setting [2]) is listed as 20%; in the experiment with fat cells (setting [3]) it was 20%; with fat cells (setting [4]) it was 21%; in the experiment on fat cells (setting [5]), 20%; in the experiment with fat cells (setting [6]), 15%; in the experiment with fat cells (setting [7]) it was 83%. Further, the “glucose metabolism in fat cells” value in the experiment with fat cells (setting [8]) is 88%; in the experiment on fat cells (setting [9]), 86%; in the experiment with fat cells (setting [10]), 85%; in the experiment with fat cells (setting [11]), 55%; in the experiment on fat cells (setting [12]), 114%; in the experiment with fat cells (setting [13]) it was 112%. For the same compound, the “glucose metabolism in fat cells” value was 108% in the experiment on fat cells (setting [14]), 112% with fat cells (setting [15]) and 70% with fat cells (setting [16]).
